Test results: patent US12433860B2, “Treatment of multiple sclerosis comprising DHODH inhibitors” (Immunic AG, priority 2021, dated 2025)
Where “and” joins values, the source holds several entries; their conditions need not be identical. Equal values may be shown once. Where a name gives a salt, the structure may show the parent alone.

How the values were obtained:
[1] = system: patients with RRMS and evidence of active disease; test: EMPhASIS Cohort 2 interim analysis: MRI lesions up to Week 12; format: in vivo, human; conditions: for Cumulative number of New Gd+ lesions up to Week 12, Mean / Cumulative number of CUA MRI lesions up to Week 12, Mean / Patients without CUA MRI lesions over 12 weeks / Patients without New Gd+ lesions over 12 weeks: mFAS; for Cumulative number of New Gd+ lesions up to Week 12, Mean: placebo 3.5; for Cumulative number of CUA MRI lesions up to Week 12, Mean: placebo 4.4; for Patients without CUA MRI lesions over 12 weeks: placebo 41.4; for Patients without CUA MRI lesions over 12 weeks / Patients without New Gd+ lesions over 12 weeks: listed as IMU-838; for Patients without New Gd+ lesions over 12 weeks: placebo 49.3
[2] = system: T-lymphocyte proliferation; conditions: in vitro; cited from earlier work

SMILES: COc1cccc(-c2ccc(NC(=O)C3=C(C(=O)O)CCC3)c(F)c2)c1 [vidofludimus calcium, 1-cyclopentene-1-carboxylic acid, 2-(((3-fluoro-3′-methoxy(1,1′-biphenyl)-4-yl)amino)carbonyl)-, calcium salt (2:1)]
- suppression of Gd+ lesions at Week 12 compared with placebo ([1]; 10 mg): 40%
- Cumulative number of New Gd+ lesions up to Week 12, Mean ([1]; 10 mg (C2)): 2.0
- suppression of CUA lesions at Week 12 compared with placebo ([1]; 30 mg): 68%
- suppression of Gd+ lesions at Week 12 compared with placebo ([1]; 30 mg): 66%
- Cumulative number of New Gd+ lesions up to Week 12, Mean ([1]; 30 mg (C1)): 1.2
- Cumulative number of CUA MRI lesions up to Week 12, Mean ([1]; 30 mg (C1)): 1.4
- Patients without CUA MRI lesions over 12 weeks ([1]; 30 mg (C1)): 62% and 61.5%
- Patients without New Gd+ lesions over 12 weeks ([1]; 30 mg (C1)): 66% and 66.2%
- suppression of CUA lesions at Week 12 compared with placebo ([1]; 45 mg): 75%
- suppression of Gd+ lesions at Week 12 compared with placebo ([1]; 45 mg): 74%
- Cumulative number of New Gd+ lesions up to Week 12, Mean ([1]; 45 mg (C1)): 0.9
- Cumulative number of CUA MRI lesions up to Week 12, Mean ([1]; 45 mg (C1)): 1.1
- Patients without CUA MRI lesions over 12 weeks ([1]; 45 mg (C1)): 55% and 54.5%
- Patients without New Gd+ lesions over 12 weeks ([1]; 45 mg (C1)): 61% and 60.6%
- T-lymphocyte proliferation [2]: inhibited
